Legend:
[1] = system: 35S:ADS A. thaliana; assay: amorpha-4,11-diene production in 35S:ADS A. thaliana seedlings cultured in MS liquid medium with inhibitor (GC-MS); format: in vivo, Arabidopsis thaliana
Method: The following experiment was performed to confirm that the attachment of the enzyme inhibitor squalestatin (squalene synthase inhibitor) had the effect of increasing production of amorpha-4,11-diene on 35S:ADS A. thaliana, which is an Arabidopsis thaliana into which had been introduced a gene encoding amorphadiene synthase (ADS).
The 35S:ADS A. thaliana is Arabidopsis thaliana in which a gene encoding ADS derived from Artemisia annua is overexpressed. It is properly managed as 433 7-5 line in Cell Technology Laboratory, Division of Advanced Science and Biotechnology, Graduate School of Engineering, Osaka University.
In order to sterilize 35S:ADS A. thaliana seeds, the seeds were immersed in a seed sterilization water (0.25% sodium hypochlorite solution, 1% SDS) for 20 minutes and then washed with sterilized water four times.
The seeds were plated on MS agar medium (Murashige and Skoog medium, including 4.4 g/L vitamins, 10 g/L sucrose, and 10 g/L agar) set to a pH of 5.8.
The plating was followed by vernalization for two or more days at 4° C. Thereafter, the seeds were cultured at 23° C. under long day conditions (16 hours light/8 hours dark) for seven days.
The resulting Arabidopsis thaliana seedlings were transferred to MS liquid media supplemented with squalestatin (SQS inhibitor) at squalestatin concentrations of 0, 1, 3, 5, 10, and 15 μmol/L, followed by further culturing for seven days with shaking at 23° C. under long day conditions (16 hours light/8 hours dark).
Amorpha-4,11-diene was extracted from the Arabidopsis thaliana plants by the following procedure. About 100 mg (wet weight) of Arabidopsis thaliana plants was placed in a mortar, to which was added about 5 mL of n-hexane. After 100 μL of a n-tetradecane solution was added as an internal standard, the mixture was subjected to grinding and extraction. The extract was once recovered, and the residue was combined with another 5 mL of fresh n-hexane, followed by grinding and extraction. The extract from the second extraction was combined with that from the first extraction. This cycle of operation was repeated twice. The resulting extract was passed through an anhydrous sodium sulfate column.
The eluate from the column was concentrated under reduced pressure to about 1 mL using a rotary evaporator, and then dried to a solid with a nitrogen blowing concentrator.
The dried solid was finally combined with 1 mL of n-hexane to prepare a sample for GC-MS analysis.
The GC-MS analysis was performed with a JMS-SUN200 mass spectrometer (JEOL) and a gas chromatograph (6890 series GC system: Agilent Technologies). […]
Instead of squalene synthase (SQS), squalene epoxidase (SQE), which is located one step downstream of SQS, was inhibited, and then the effect of increasing production of amorpha-4,11-diene was evaluated. […]

[2] = system: Taraxacum koksaghyz; assay: natural rubber production in Taraxacum koksaghyz sprayed with inhibitor solution (rubber dry weight); format: in vivo
Method: The following experiment was performed to confirm that the attachment of the enzyme inhibitor squalestatin (squalene synthase inhibitor) to the rubber-producing plant Taraxacum koksaghyz had the effect of increasing production of natural rubber.
Taraxacum koksaghyz seeds were vernalized for two or more days at 4° C. and then planted in soil.
After planted in soil, the seeds were grown at 25° C. under 12 h light/12 h dark conditions for five months.
Squalestatin was dissolved at a concentration of 10 μmol/L in 0.1% dimethyl sulfoxide (DMSO) to prepare a squalestatin solution. Two of the thus grown Taraxacum koksaghyz plants were each sprayed with 50 mL of the squalestatin solution once a day for four days using a spray.
As a comparative example, another two Taraxacum koksaghyz individuals were sprayed with 50 mL of a 0.1% dimethyl sulfoxide (DMSO) solution without squalestatin once a day for four days using a spray.
On day 5 after initiation of the treatment, latex was recovered from the Taraxacum koksaghyz roots and immersed in ethanol for five hours to solidify natural rubber.
The solidified natural rubber was dried at room temperature for three days. Thereafter, the dry weight was measured, and the results were compared.

SMILES | amorpha-4,11-diene amount relative to treatment with the same concentration of squalestatin ([1]; 5 μmol/L) | increase in the production of amorpha-4,11-diene ([1]; terbinafine 1, 3 and 5 μmol/L, same procedure as Example 1) | accumulation of amorpha-4,11-diene ([1]; treatment with 5 μmol/L) | Rubber dry weight ([2]; 10 μmol/L in 0.1% DMSO, 50 mL sprayed once a day for four days, latex from roots on day 5, average of two individuals) [mg] | increase in amount of natural rubber recovered versus plants not treated with squalestatin ([2]; 10 μmol/L, sprayed once a day for four days) [times] | amount of amorpha-4,11-diene inside Arabidopsis thaliana plants ([1]; treatment with 3 μmol/L or more of squalestatin, seven-day shake culture, FIG. 2)
CN(C/C=C/C#CC(C)(C)C)Cc1cccc2ccccc12 [terbinafine] | a tenth or less | very little increase | about 0.004 μg gFW^-1 | – | – | –
C=C(CC[C@]12O[C@H](C(=O)O)[C@@](O)(C(=O)O)[C@](C(=O)O)(O1)[C@H](OC(=O)/C=C/[C@@H](C)C[C@@H](C)CC)[C@H]2O)[C@@H](OC(C)=O)[C@H](C)Cc1ccccc1 [squalestatin] | – | – | – | 4.2 | 2.5 | increase

From patent US9719110B2, “Method of increasing production of amorpha-4,11-diene and method of increasing production of natural rubber” (SUMITOMO RUBBER INDUSTRIES, LTD., priority 2014, dated 2017)
